Test results: patent US8987195B2 (priority 2012, dated 2015)
Where two headings read alike, the source gives them in different places.

Assays:
[1] = biological target: HCV NS3/4A protease genotype 1b (Hepatitis C virus genotype 1b, UniProt P26663); test: HCV NS3/4A protease time-resolved fluorescence (TRF) assay, Ki against genotype 1b; type: biochemical; settings: IC50 [gt-1b], NS3/4A protease TRF assay, genotype 1b enzyme 0.2 nM
In short: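 Time-resolved fluorescence readout of NS3/4A cleavage of 25 nM europium-labelled peptide over 2.5 h at room temperature, enzyme levels set for signal/background 10–30 (0.2, 0.4, 0.025 nM for 1b, A156T, 3a). Ki by IC50=Ki(1+[S]/KM).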

HCV genotype 1b replicon = test: HCV replicon assay, genotype 1b replicon EC50; type: cell-based, Hepatitis C virus; settings: Hepatitis C virus, HCV replicon, genotype 1b, read-out: EC50 [gt-1b]
In short: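 Assay format: compound titration on stable replicon cells, no G418 during treatment, 24 to 48 hours. Lysates were assayed for replicon RNA (hybridization/protection or TaqMan) or luciferase; EC50 fitted to four parameters against DMSO.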

| SMILES | IC50 [1] | EC50 (HCV genotype 1b replicon) | IC50 ([1]; K+ salt) | EC50 (HCV genotype 1b replicon; K+ salt) |
| --- | --- | --- | --- | --- |
| COc1ccc2nc(C)c3c(c2c1)CC[C@]1(C[C@H]2C(=O)N[C@]4(C(=O)NS(=O)(=O)C5(C)CC5)C[C@H]4/C=C\CCCCC[C@H](Nc4ncccc4C)C(=O)N2C1)O3 [Example 429, (2R,6S,12Z,13aS,14aR,16aS)-9′-methoxy-5′-methyl-N-[(1-methylcyclopropyl)sulfonyl]-6-[(3-methylpyridin-2-yl)amino]-5,16-dioxo-1,1′,2′,6,7,8,9,10,11,13a,14,15,16,16a-tetradecahydrospiro[cyclopropa[e]pyrrolo[1,2-a][1,4]diazacyclopentadecine-2,3′-pyrano[2,3-c]quinoline]-14a(5H)-carboxamide] | 0.194 nM | 4.28 nM | – | – |
| COCCOc1ccc2nc(C)c3c(c2c1)CC[C@]1(C[C@H]2C(=O)N[C@]4(C(=O)NS(=O)(=O)C5(C)CC5)C[C@H]4/C=C\CCCCC[C@H](NC(=O)OC(C)(C)C(F)(F)F)C(=O)N2C1)O3 [Example 430, 1,1,1-trifluoro-2-methylpropan-2-yl [(2R,6S,12Z,13aS,14aR,16aS)-9′-(2-methoxyethoxy)-5′-methyl-14a-{[(1-methylcyclopropyl)sulfonyl]carbamoyl}-5,16-dioxo-1,1′,2′,5,6,7,8,9,10,11,13a,14,14a,15,16,16a-hexadecahydrospiro[cyclopropa[e]pyrrolo[1,2-a][1,4]diazacyclopentadecine-2,3′-pyrano[2,3-c]quinolin]-6-yl]carbamate] | 0.026 nM | 5.04 nM | – | – |
| COc1ccc2nc(C)c3c(c2c1)CC[C@]1(C[C@H]2C(=O)N[C@]4(C(=O)NS(=O)(=O)C5(C)CC5)C[C@H]4/C=C\CCCCC[C@H](Nc4cccc(OC)n4)C(=O)N2C1)O3 [Example 431, (2R,6S,12Z,13aS,14aR,16aS)-9′-methoxy-6-[(6-methoxypyridin-2-yl)amino]-5′-methyl-N-[(1-methylcyclopropyl)sulfonyl]-5,16-dioxo-1,1′,2′,6,7,8,9,10,11,13a,14,15,16,16a-tetradecahydrospiro[cyclopropa[e]pyrrolo[1,2-a][1,4]diazacyclopentadecine-2,3′-pyrano[2,3-c]quinoline]-14a(5H)-carboxamide] | 0.209 nM | 9.12 nM | – | – |
| COc1ccnc(N[C@H]2CCCCC/C=C\[C@@H]3C[C@@]3(C(=O)NS(=O)(=O)C3(C)CC3)NC(=O)[C@@H]3C[C@]4(CCc5c(c(C)nc6ccc(OC)cc56)O4)CN3C2=O)c1 [Example 432, (2R,6S,12Z,13aS,14aR,16aS)-9′-methoxy-6-[(4-methoxypyridin-2-yl)amino]-5′-methyl-N-[(1-methylcyclopropyl)sulfonyl]-5,16-dioxo-1,1′,2′,6,7,8,9,10,11,13a,14,15,16,16a-tetradecahydrospiro[cyclopropa[e]pyrrolo[1,2-a][1,4]diazacyclopentadecine-2,3′-pyrano[2,3-c]quinoline]-14a(5H)-carboxamide] | 0.091 nM | 7.5 nM | – | – |
| CCc1nc2ccc(OC)cc2c2c1O[C@]1(CC2)C[C@H]2C(=O)N[C@]3(C(=O)NS(=O)(=O)C4(C)CC4)C[C@H]3/C=C\CCCCC[C@H](NC(=O)O[C@H](C)C(C)C)C(=O)N2C1 [Example 433, (2R)-3-methylbutan-2-yl [(2R,6S,12Z,13aS,14aR,16aS)-5′-ethyl-9′-methoxy-14a-{[(1-methylcyclopropyl)sulfonyl]carbamoyl}-5,16-dioxo-1,1′,2′,5,6,7,8,9,10,11,13a,14,14a,15,16,16a-hexadecahydrospiro[cyclopropa[e]pyrrolo[1,2-a][1,4]diazacyclopentadecine-2,3′-pyrano[2,3-c]quinolin]-6-yl]carbamate] | 0.012 nM | 2.17 nM | – | – |
| CCc1nc2ccc(OC)cc2c2c1O[C@]1(CC2)C[C@H]2C(=O)N[C@]3(C(=O)NS(=O)(=O)C4(C)CC4)C[C@H]3/C=C\CCCCC[C@H](NC(=O)O[C@@H](C)C(C)C)C(=O)N2C1 [Example 434, (2S)-3-methylbutan-2-yl [(2R,6S,12Z,13aS,14aR,16aS)-5′-ethyl-9′-methoxy-14a-{[(1-methylcyclopropyl)sulfonyl]carbamoyl}-5,16-dioxo-1,1′,2′,5,6,7,8,9,10,11,13a,14,14a,15,16,16a-hexadecahydrospiro[cyclopropa[e]pyrrolo[1,2-a][1,4]diazacyclopentadecine-2,3′-pyrano[2,3-c]quinolin]-6-yl]carbamate] | 0.012 nM | 1.78 nM | – | – |
| COC(=O)N[C@H]1CCCCC/C=C\[C@@H]2C[C@@]2(C(=O)NS(=O)(=O)C2(C)CC2)NC(=O)[C@@H]2C[C@]3(CCc4c(c(C5CC5)nc5ccc(OC)cc45)O3)CN2C1=O [Example 435, methyl [(2R,6S,12Z,13aS,14aR,16aS)-5′-cyclopropyl-9′-methoxy-14a-{[(1-methylcyclopropyl)sulfonyl]carbamoyl}-5,16-dioxo-1,1′,2′,5,6,7,8,9,10,11,13a,14,14a,15,16,16a-hexadecahydrospiro[cyclopropa[e]pyrrolo[1,2-a][1,4]diazacyclopentadecine-2,3′-pyrano[2,3-c]quinolin]-6-yl]carbamate] | – | – | 0.069 nM | 3.08 nM |
| CCOC(=O)N[C@H]1CCCCC/C=C\[C@@H]2C[C@@]2(C(=O)NS(=O)(=O)C2(C)CC2)NC(=O)[C@@H]2C[C@]3(CCc4c(c(C5CC5)nc5ccc(OC)cc45)O3)CN2C1=O [Example 436, ethyl [(2R,6S,12Z,13aS,14aR,16aS)-5′-cyclopropyl-9′-methoxy-14a-{[(1-methylcyclopropyl)sulfonyl]carbamoyl}-5,16-dioxo-1,1′,2′,5,6,7,8,9,10,11,13a,14,14a,15,16,16a-hexadecahydrospiro[cyclopropa[e]pyrrolo[1,2-a][1,4]diazacyclopentadecine-2,3′-pyrano[2,3-c]quinolin]-6-yl]carbamate] | – | – | 0.029 nM | 1.18 nM |
| CCCOC(=O)N[C@H]1CCCCC/C=C\[C@@H]2C[C@@]2(C(=O)NS(=O)(=O)C2(C)CC2)NC(=O)[C@@H]2C[C@]3(CCc4c(c(C5CC5)nc5ccc(OC)cc45)O3)CN2C1=O [Example 437, propyl [(2R,6S,12Z,13aS,14aR,16aS)-5′-cyclopropyl-9′-methoxy-14a-{[(1-methylcyclopropyl)sulfonyl]carbamoyl}-5,16-dioxo-1,1′,2′,5,6,7,8,9,10,11,13a,14,14a,15,16,16a-hexadecahydrospiro[cyclopropa[e]pyrrolo[1,2-a][1,4]diazacyclopentadecine-2,3′-pyrano[2,3-c]quinolin]-6-yl]carbamate] | – | – | 0.016 nM | 1 nM |
| COCCCOc1ccc2nc(C)c3c(c2c1)CC[C@]1(C[C@H]2C(=O)N[C@]4(C(=O)NS(=O)(=O)C5(C)CC5)C[C@H]4/C=C\CCCCC[C@H](NC(=O)OC(C)(C)C)C(=O)N2C1)O3 [Example 438, tert-butyl [(2R,6S,12Z,13aS,14aR,16aS)-9′-(3-methoxypropoxy)-5′-methyl-14a-{[(1-methylcyclopropyl)sulfonyl]carbamoyl}-5,16-dioxo-1,1′,2′,5,6,7,8,9,10,11,13a,14,14a,15,16,16a-hexadecahydrospiro[cyclopropa[e]pyrrolo[1,2-a][1,4]diazacyclopentadecine-2,3′-pyrano[2,3-c]quinolin]-6-yl]carbamate] | 0.023 nM | 3.5 nM | – | – |
| CCc1nc2ccc(OC)cc2c2c1O[C@]1(C[C@H]2F)C[C@H]2C(=O)N[C@]3(C(=O)NS(=O)(=O)C4(C)CC4)C[C@H]3/C=C\CCCCC[C@H](NC(=O)OC(C)(C)C)C(=O)N2C1 [Example 439, tert-butyl [(1′R,2S,6S,12Z,13aS,14aR,16aS)-5′-ethyl-1′-fluoro-9′-methoxy-14a-{[(1-methylcyclopropyl)sulfonyl]carbamoyl}-5,16-dioxo-1,1′,2′,5,6,7,8,9,10,11,13a,14,14a,15,16,16a-hexadecahydrospiro[cyclopropa[e]pyrrolo[1,2-a][1,4]diazacyclopentadecine-2,3′-pyrano[2,3-c]quinolin]-6-yl]carbamate] | 0.009 nM | 1.55 nM | – | – |
| COc1ccc2nc(C(F)F)c3c(c2c1)CC[C@]1(C[C@H]2C(=O)N[C@]4(C(=O)NS(=O)(=O)C5(C)CC5)C[C@H]4/C=C\CCCCC[C@H](NC(=O)OCC(C)C)C(=O)N2C1)O3 [Example 440, 2-methylpropyl [(2R,6S,12Z,13aS,14aR,16aS)-5′-(difluoromethyl)-9′-methoxy-14a-{[(1-methylcyclopropyl)sulfonyl]carbamoyl}-5,16-dioxo-1,1′,2′,5,6,7,8,9,10,11,13a,14,14a,15,16,16a-hexadecahydrospiro[cyclopropa[e]pyrrolo[1,2-a][1,4]diazacyclopentadecine-2,3′-pyrano[2,3-c]quinolin]-6-yl]carbamate] | – | – | 0.016 nM | 1.98 nM |
| COc1ccc2nc(C(F)F)c3c(c2c1)CC[C@]1(C[C@H]2C(=O)N[C@]4(C(=O)NS(=O)(=O)C5(C)CC5)C[C@H]4/C=C\CCCCC[C@H](NC(=O)OCC(C)(C)C)C(=O)N2C1)O3 [Example 441, 2,2-dimethylpropyl [(2R,6S,12Z,13aS,14aR,16aS)-5′-(difluoromethyl)-9′-methoxy-14a-{[(1-methylcyclopropyl)sulfonyl]carbamoyl}-5,16-dioxo-1,1′,2′,5,6,7,8,9,10,11,13a,14,14a,15,16,16a-hexadecahydrospiro[cyclopropa[e]pyrrolo[1,2-a][1,4]diazacyclopentadecine-2,3′-pyrano[2,3-c]quinolin]-6-yl]carbamate] | – | – | 0.016 nM | 1.53 nM |
